In patent publication US9192554B2, “Use of chicoric acid and lactic bacterium in food supplement for regulating skin pigmentation” (Nestec S.A., priority 2010, dated 2015):

System: B16 murine melanocytes
Assay: Production of melanin by B16 murine melanocyte cell line
Type: cell-based
Settings: 72 hours, Kojic acid at 400 μg/mL
Method: In order to evaluate the potential beneficial effect of ingredients towards skin de- or pro-pigmentation we used 2D culture of murine melanocytes (B16) and we performed 2 tests: 1-assessment of melanin production and 2-assessment of tyrosinase production. 1. The Cell Culture Conditions. • B16 cells were cultured in DMEM 1 g/L glucose without phenol red supplemented with 10% foetal calf serum, in a humidified chamber at 37° C. and containing 5% CO2. 2. The Production of Melanin by B16 Murine Melanocyte Cell Line. • Cells were incubated with the selected ingredients or the test references (Kojic acid at 400 μg/mL) for 72 hours, in the presence or absence of NDP-MSH an analog of MSH. The total quantity of melanin (extracellular and intracellular) was evaluated by measurement of the optical density at 405 nm of each sample against melanin standards in presence or in absence of NDP-MSH. Chicoric acid has been pre-treated with La-1 [(spray dried culture Lactobacillus Johnsonii CNCM I-1225, 1.19E10 cfu/g) for 24 hours in a thermomixer at 40° C., under shaking conditions. After incubation, samples have been centrifuged 5 minutes at 3000 g. After this treatment the probiotic as such is not present anymore in the sample however the presence of its metabolites can't be excluded.

Structure (SMILES): O=c1cc(CO)occ1O [Kojic acid]
- Melanin content (effect in words): decrease in melanin content
